Source: US8802702B2, “Compounds for reducing drug resistance and uses thereof” (The General Hospital Corporation, priority 2009, dated 2014)
Where two headings read alike, the source gives them in different places.

Tests used:
[1] = test system: MCF-7 MX cells (express BCRP, not Pgp1); test: Reversal of drug resistance in non-Pgp1 MDR cells expressing BCRP; assay type: cell-based, human
Source text: Dr. Efstathios Gonos (Institute of Biological Research & Biotechnology, Athens, Greece) provided the doxorubicin resistant U-2OS R2 (referred in the text below as U-2OSDR), KHOS R2 cell lines. Dr. Stephen. Howell (The University of California Medical Center, San Diego) provided the cisplatin-resistant ovarian cancer IGROV1cp and 2008 cp70 cell lines. Dr. Erasmus Schneider (Wadsworth Center, Albany) provided the mitoxantrane resistant breast cancer MCF-7/MX cell line. Dr. Katia Scotlandi (Institute Orthopedics Rizzoli, Italy) provided ET-743 resistant TC-ET 6 nM and TC-ET 12 nM cell lines.

KHOSR2 cells = test: Reversal of drug resistance, cytotoxicity assay in KHOSR2; assay type: cell-based, human; conditions: for IC50: Homo sapiens
[2] = target: T1, Pgp1 efflux in SKOV-3TR and OVCAR8TR cells (Homo sapiens, UniProt P08183); test: Calcein AM drug efflux assay (VYBRANT kit) in resistant cells; assay type: cell-based
T1 construct: endogenous in cells; host or cells: SKOV-3TR and OVCAR8TR (paclitaxel-selected resistant lines, not transfected)
Procedure: Calcein-AM assay was optimized and performed using the VYBRANT™ multi-drug resistance assay kit (Invitrogen/Molecular Probes) and SKOV-3TR cells. Cells were seeded at 50,000 cells/well (100 μl of culture medium) in a 96-well plate and incubated for 24 h. […] The cell fluorescence images were acquired by a fluorescence microscope (A, C) and quantities of fluorescence were measured in a SPECTRAmax Microplate Spectrofluorometer (B, D).
The VYBRANT™ multi-drug resistance assay kit (Invitrogen/Molecular Probes) was used to measure drug efflux properties of different resistant cell lines. This assay utilizes the fluorogenic dye calcein acetoxymethyl ester (calcein AM) as a substrate for efflux activity of Pgp1 or other membrane pump ABC proteins. Calcein AM is taken up by cells and hydrolyzed by cytoplasmic esterases to fluorescent calcein. Calcein AM is well retained in the cytosol. However, multi-drug resistant cells expressing high levels of Pgp1 rapidly extrude non-fluorescent calcein AM from the plasma membrane, reducing accumulation of fluorescent calcein in the cytosol. Drug sensitive and resistant cells (3×10^5) were cultured in 96-well plate for 24 hours and then incubated in 0.25 μM calcein AM in 150 μl total volume. After 30 minutes, the cells in plate were washed and centrifuged twice with 200 μl cold RPMI1640 culture medium, and cell fluorescence was measured at a […] on a SPECTRAMAX™ Microplate Spectrofluorometer (Molecular Devices).

[3] = test system: Pgp1 substrate retention in SKOV-3TR cells; test: Fluorescence microscopy of Pgp substrate accumulation; assay type: cell-based, human
Procedure: FIG. 8 depicts the increase in Pgp1 substrate accumulation in SKOV-3TR by NSC23925. Images of SKOV-3TR cells incubated with various fluorescent substrates of Pgp1 in the presence (bottom panel) and absence (top panel) of NSC23925. For visualization of effects of NSC23925 on the intracellular retention of rhodamine 123, mitoxantrone, Dioc2, doxorobucin, and calcein AM, 10,000 resistant cells were seeded on to Lab-Tek 8-well chamber slides on the day prior to the assay. SKOV-3TR cells were then incubated with either 1 μM rhodamine 123, 10 μM mitoxantrone, 0.1 μM Dioc2, 10 μM doxorubicin or 0.25 μM calcein AM either alone or in the presence of NSC23925 in RPMI 1640 media for one hour at 37° C. Image were acquired a Nikon Eclipse Ti-U fluorescence microscope (Nikon Corp.) equipped with a SPOT RT digital camera (Diagnostic Instruments, Inc., Sterling Heights, Mich.).
For visualization of the effects of NSC23925 on the intracellular retention of calcein AM, doxorubicin, and mitoxantrone, 10,000 resistant cells were seeded on to Lab-Tek 8-well chamber slides on the day prior to the assay. […] Images were acquired by Nikon Eclipse Ti-U fluorescence microscope (Nikon Corp.) equipped with a SPOT RT digital camera (Diagnostic Instruments, Inc., Sterling Heights, Mich.).

[4] = test system: OVCAR8 and OVCAR8TR cells; test: Cytotoxicity of NSC23925 alone (MTT assay), OVCAR8/OVCAR8TR; assay type: cell-based, human
Procedure: Cells were treated with the NSC23925 in RPMI1640 complete media at the indicated concentrations. The relative sensitivity of each line to NSC23925 was determined by MTT assay. A: Nonspecific toxicity of NSC23925 on SKOV3 vs SKOV-3TR. B: Nonspecific toxicity of NSC23925 on OVCAR8 vs OVCAR8TR. Drug cytotoxicity was assessed in vitro using the MTT assay. SKOV-3 and SKOV-3TR cells were used herein. Briefly, 2×10^3 cells per well were plated in 96-well plates in culture medium (RPMI 1640 supplemented with 10% fetal bovine serum and penicillin/streptomycin) containing increasing concentrations of drug. After 7 days of culture, 10 μl MTT (5 mg/ml in PBS, obtained from Sigma) were added to each well and the plates were incubated for 4 h. The resulting formazan product was dissolved with acid-isopropanol and the absorbance at a wavelength of 490 nm (A490) was read on a SPECTRAmax® Microplate Spectrophotometer (Molecular Devices, Sunnyvale, Calif.). The absorbance values were normalized by assigning the value of the control line in the medium without drug to 1.0 and the value of the no cell control to 0. Experiments were performed in triplicate.

[5] = test system: SKOV-3TR and KHOSR2 cells; test: Flow cytometry of intracellular doxorubicin retention; assay type: cell-based, human; conditions: 5 μM doxorubicin, NSC23925 0.5 μM, 1 hour
Procedure: FIG. 9 depicts the intracellular retention of doxorubicin from multidrug resistant SKOV-3TR and KHOSR2 cells in the presence of 5 μM doxorubicin with or without treatment of NSC23925 (0.5 μM). Cells were treated for 1 hour before the flow cytometry analysis.

T1 sequence (P08183 whole entry): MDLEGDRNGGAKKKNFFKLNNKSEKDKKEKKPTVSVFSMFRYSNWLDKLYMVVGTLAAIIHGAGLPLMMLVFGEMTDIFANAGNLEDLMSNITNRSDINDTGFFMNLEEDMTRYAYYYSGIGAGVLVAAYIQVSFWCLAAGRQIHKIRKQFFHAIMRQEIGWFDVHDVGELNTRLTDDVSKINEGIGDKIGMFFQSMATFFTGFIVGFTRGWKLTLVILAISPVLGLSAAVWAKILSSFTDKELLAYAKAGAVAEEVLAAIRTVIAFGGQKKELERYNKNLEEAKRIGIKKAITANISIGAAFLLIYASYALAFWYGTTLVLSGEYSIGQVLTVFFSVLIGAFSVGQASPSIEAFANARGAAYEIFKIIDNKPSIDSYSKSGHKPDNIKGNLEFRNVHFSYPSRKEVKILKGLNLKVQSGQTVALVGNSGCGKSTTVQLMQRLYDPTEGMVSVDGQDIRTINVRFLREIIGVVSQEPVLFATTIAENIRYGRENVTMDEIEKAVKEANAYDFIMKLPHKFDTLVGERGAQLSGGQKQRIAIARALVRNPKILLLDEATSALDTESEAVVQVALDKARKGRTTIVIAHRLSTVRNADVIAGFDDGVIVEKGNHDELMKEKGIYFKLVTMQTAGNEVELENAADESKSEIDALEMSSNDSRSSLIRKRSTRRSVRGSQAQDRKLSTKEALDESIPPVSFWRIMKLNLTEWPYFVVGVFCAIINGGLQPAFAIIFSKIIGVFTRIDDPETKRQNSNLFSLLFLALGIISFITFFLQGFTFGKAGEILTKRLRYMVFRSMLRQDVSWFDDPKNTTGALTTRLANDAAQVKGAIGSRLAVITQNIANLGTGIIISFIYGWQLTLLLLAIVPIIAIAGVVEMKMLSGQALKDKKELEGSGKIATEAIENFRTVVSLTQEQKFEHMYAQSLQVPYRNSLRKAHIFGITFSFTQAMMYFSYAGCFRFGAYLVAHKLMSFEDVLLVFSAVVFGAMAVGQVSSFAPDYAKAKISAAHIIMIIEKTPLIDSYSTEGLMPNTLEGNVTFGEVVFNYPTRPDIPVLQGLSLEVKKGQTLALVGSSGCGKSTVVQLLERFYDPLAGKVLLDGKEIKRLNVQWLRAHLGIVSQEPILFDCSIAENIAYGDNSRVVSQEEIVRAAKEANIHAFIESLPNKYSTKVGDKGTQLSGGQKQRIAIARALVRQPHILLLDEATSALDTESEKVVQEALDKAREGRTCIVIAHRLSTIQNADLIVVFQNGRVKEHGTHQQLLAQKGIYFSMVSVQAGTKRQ

## COc1ccc(-c2cc(C(O)C3CCCCN3)c3ccccc3n2)cc1 (stereo not shown) [NSC23925, (2-(4-methoxyphenyl)quinolin-4-yl)(piperidin-2-yl)methanol]
[1]
  Reversal of drug resistance in MCF-7 MX cells: unable to reverse drug resistance
KHOSR2 cells; Doxorubicin, add NSC23925 0.1 μM
  fold-reversal of drug resistance, KHOSR2: (1.4) fold
KHOSR2 cells; Doxorubicin, add NSC23925 0.5 μM
  fold-reversal of drug resistance, KHOSR2: (8.6) fold
KHOSR2 cells; Doxorubicin, add NSC23925 1 μM
  fold-reversal of drug resistance, KHOSR2: (35) fold
KHOSR2 cells; ET-743, add NSC23925 0.1 μM
  fold-reversal of drug resistance, KHOSR2: (1.2) fold
KHOSR2 cells; ET-743, add NSC23925 0.5 μM
  fold-reversal of drug resistance, KHOSR2: (2.1) fold
KHOSR2 cells; ET-743, add NSC23925 1 μM
  fold-reversal of drug resistance, KHOSR2: (3.2) fold
KHOSR2 cells; Doxorubicin, add NSC23925 0.1 μM, read-out: KHOSR2 IC50 of Doxorubicin
  IC50: 7360 ± 336 nM
KHOSR2 cells; Doxorubicin, add NSC23925 0.5 μM, read-out: KHOSR2 IC50 of Doxorubicin
  IC50: 1200 ± 461 nM
KHOSR2 cells; Doxorubicin, add NSC23925 1 μM, read-out: KHOSR2 IC50 of Doxorubicin
  IC50: 292 ± 210 nM
KHOSR2 cells; ET-743, add NSC23925 0.1 μM, read-out: KHOSR2 IC50 of ET-743
  IC50: 145 ± 45 nM
KHOSR2 cells; ET-743, add NSC23925 0.5 μM, read-out: KHOSR2 IC50 of ET-743
  IC50: 83 ± 39 nM
KHOSR2 cells; ET-743, add NSC23925 1 μM, read-out: KHOSR2 IC50 of ET-743
  IC50: 54 ± 34 nM
KHOSR2 cells; PM00104, add NSC23925 0.1 μM, read-out: KHOSR2 IC50 of PM00104
  IC50: 113 ± 38 nM
KHOSR2 cells; PM00104, add NSC23925 0.5 μM, read-out: KHOSR2 IC50 of PM00104
  IC50: 26 ± 14 nM
KHOSR2 cells; PM00104, add NSC23925 1 μM, read-out: KHOSR2 IC50 of PM00104
  IC50: 8 ± 16 nM
KHOSR2 cells; Paclitaxel, add NSC23925 0.1 μM, read-out: KHOSR2 IC50 of Paclitaxel
  IC50: 160 ± 16 nM
KHOSR2 cells; Paclitaxel, add NSC23925 0.5 μM, read-out: KHOSR2 IC50 of Paclitaxel
  IC50: 120 ± 32 nM
KHOSR2 cells; Paclitaxel, add NSC23925 1 μM, read-out: KHOSR2 IC50 of Paclitaxel
  IC50: 60 ± 20 nM
KHOSR2 cells; PM00104, add NSC23925 0.1 μM
  fold-reversal of drug resistance, KHOSR2: (1.3) fold
KHOSR2 cells; PM00104, add NSC23925 0.5 μM
  fold-reversal of drug resistance, KHOSR2: (5.5) fold
KHOSR2 cells; PM00104, add NSC23925 1 μM
  fold-reversal of drug resistance, KHOSR2: (17.9) fold
KHOSR2 cells; Paclitaxel, add NSC23925 0.1 μM
  fold-reversal of drug resistance, KHOSR2: (1.3) fold
KHOSR2 cells; Paclitaxel, add NSC23925 0.5 μM
  fold-reversal of drug resistance, KHOSR2: (1.8) fold
KHOSR2 cells; Paclitaxel, add NSC23925 1 μM
  fold-reversal of drug resistance, KHOSR2: (3.5) fold
[2]
  Potency compared with verapamil and CsA (calcein AM accumulation): significantly greater
[2]; SKOV-3TR and OVCAR8TR
  Half-maximal reversal of calcein AM accumulation deficit: 100 nM
  Lowest concentration with prominent effect on accumulation of calcein AM: 1 nM
  Near maximal reversal of calcein AM accumulation deficit: 500 nM
[3]; 1 μM NSC23925, one hour at 37° C.
  Fluorescence of SKOV-3TR cells incubated with fluorescent Pgp substrates: highly fluorescent
[3]; fluorescence
  Efflux of Pgp1 substrates Rhodamine 123, mitoxantrone, dioc 2 and doxorubicin from SKOV-3TR: inhibited the efflux
[4]; <5-10 μM NSC23925 alone, cells lack Pgp1
  Cytotoxic effect of NSC23925 alone in parental OVCAR8: no cytotoxic effect
[4]; Homo sapiens, OVCAR-8, OVCAR8/OVCAR8TR, single agent, read-out: IC50 for NSC23925 (proliferation)
  IC50: 25000 nM
[5]
  Accumulation of doxorubicin by flow cytometric analysis: increases the accumulation of doxorubicin
